These results are taken from ChEMBL document CHEMBL1201862, “PubChem BioAssay data set” (2004).

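48-hour exposure; five concentrations; linearly interpolated endpoints. Here, GI50 denotes the concentration required for 50% inhibition of growth.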 Activity calls are given as the source filed them. Cut-off read from the data, not from the text of the source: active = GI50 up to about 1.1 µM and inactive = higher. *1 amine or outer side, *2 acyl side, *3 side chain or, on linkers, in order; H or OH if unused. Where a SMILES comes first, the peptide text is derived from it. Bridges are numbered along the chain shown (N, C = ends). Roman numbers before positions name the chains, in order. [ ]: non-standard residue; d: D form. Actinocin(9to1) = Cc1c2oc3c(C)ccc(C(=O)[*:1])c3nc-2c(C(=O)[*:2])c(N)c1=O; NMeV = CN[CH](C(=O)O)C(C)C; Sar = CNCC(=O)O

Test systems include A498; BT-549; CAKI-1; EKVX; HL-60; HOP-62; HT-29; IGROV-1; MCF7; MDA-MB-231; MDA-MB-435; NCI-H23; NCI-H460; OVCAR-8; RPMI-8226; SF-268; SK-MEL-28; SK-MEL-5; SN12C; TK-10.
Common to all, as to experiment: growth of human tumour cells (NCI), 48 h

Consider `CCCCCC(O)[C@H]1C(=O)C[C@@H](O[Si](C)(C)C(C)(C)C)[C@@H]1/C=C/CCOCc1ccccc1` (stereo not given in full), for which the GI50 in the test on A498 is 17.8 µM (inactive); in the test on BT-549 it was 8.07 µM (inactive); in the test with CAKI-1, 8.47 µM (inactive); in the test on EKVX, 17.4 µM (inactive); in the test with HL-60, 2.35 µM (inactive); with HOP-62 it was 17.3 µM (inactive). In addition, the GI50 with HT-29 is 9.59 µM (inactive); with IGROV-1, 12.8 µM (inactive); in the test on MCF7, 9.02 µM (inactive); in the test with MDA-MB-231, 29.2 µM (inactive); in the test with MDA-MB-435, 7.31 µM (inactive); in the test on NCI-H23 it was 16.2 µM (inactive). For the same molecule, the GI50 with NCI-H460 is 16.9 µM (inactive); in the test with OVCAR-8, 13.8 µM (inactive); in the test on RPMI-8226, 17 µM (inactive); in the test with SF-268, 16.3 µM (inactive); with SK-MEL-28 it was 15.5 µM (inactive); with SK-MEL-5, 16.6 µM (inactive). Moreover, the GI50 in the test on SN12C was 19.1 µM (inactive); with TK-10, 15.1 µM (inactive).
With `CC(C)=CCC[C@@H](C)[C@H]1CC[C@@]2(C)[C@@H]3CC[C@H]4C(C)(C)[C@@H](O)CC[C@@]45C[C@@]35CC[C@]12C` [CYCLOARTENOL], the GI50 in the test with A498 was 41.2 µM (inactive); in the test on BT-549, 21.1 µM (inactive); in the test with CAKI-1 it was 59.6 µM (inactive); with EKVX it was 37.2 µM (inactive); in the test with HL-60 it was 33.7 µM (inactive); in the test on HOP-62 it was 24.9 µM (inactive). Further, the GI50 in the test with HT-29 is > 100 µM (inactive); in the test with IGROV-1 it was 16.1 µM (inactive); in the test with MCF7, 31.8 µM (inactive); in the test on MDA-MB-231, > 44.9 µM (inactive); with MDA-MB-435, > 41.9 µM (inactive); in the test on NCI-H23, 22.7 µM (inactive). The GI50 was 17.8 µM (inactive) with NCI-H460; 16.9 µM (inactive) with OVCAR-8; 45 µM (inactive) in the test with RPMI-8226; 27.7 µM (inactive) in the test on SF-268; 39.4 µM (inactive) in the test on SK-MEL-28; > 44.4 µM (inactive) with SK-MEL-5. In addition, the GI50 in the test with SN12C was 20 µM (inactive); in the test on TK-10 it was > 100 µM (inactive).
For `Fc1cc2nc3n(c2cc1F)C(c1c(Cl)cccc1Cl)SC3` (stereo not given), the GI50 with A498 was 20.1 µM (inactive); in the test on BT-549, 21.8 µM (inactive); in the test with CAKI-1 it was 14.1 µM (inactive); in the test with EKVX, 18.4 µM (inactive); with HL-60 it was 15.5 µM (inactive); in the test on HOP-62, 16 µM (inactive). Further, the GI50 in the test on HT-29 is 16.2 µM (inactive); in the test with IGROV-1 it was 18.5 µM (inactive); with MCF7 it was 16.5 µM (inactive); with MDA-MB-231, 18.8 µM (inactive); with MDA-MB-435, 15.1 µM (inactive); with NCI-H23, 16.6 µM (inactive). The GI50 in the test on NCI-H460 is 13.7 µM (inactive); with OVCAR-8, 16 µM (inactive); in the test on RPMI-8226 it was 11.9 µM (inactive); with SF-268, 16.5 µM (inactive); in the test with SK-MEL-28, 14 µM (inactive); in the test with SK-MEL-5, 7.82 µM (inactive). Also, the GI50 in the test with SN12C was 16.3 µM (inactive); with TK-10, 18.2 µM (inactive).
Turning to `O=C1c2ccccc2-n2c1nc1ccccc1c2=O` [TRYPTANTHRIN], the GI50 in the test on A498 is 18.2 µM (inactive); in the test on BT-549 it was 14.6 µM (inactive); in the test on CAKI-1 it was 12.3 µM (inactive); in the test on EKVX it was 13.4 µM (inactive); in the test on HL-60 it was 3.71 µM (inactive); in the test with HOP-62, 12.1 µM (inactive). Further, the GI50 was 14.8 µM (inactive) in the test with HT-29; 23 µM (inactive) in the test on IGROV-1; 7.19 µM (inactive) in the test on MCF7; 16.7 µM (inactive) in the test with MDA-MB-231; 1.85 µM (inactive) in the test with MDA-MB-435; 9.73 µM (inactive) with NCI-H23. The GI50 is 1.44 µM (inactive) in the test on NCI-H460; 5.79 µM (inactive) in the test on OVCAR-8; 1.04 µM (active) in the test on RPMI-8226; 19.9 µM (inactive) in the test on SF-268; 15.8 µM (inactive) in the test with SK-MEL-28; 13.1 µM (inactive) in the test with SK-MEL-5. The GI50 was 12.6 µM (inactive) in the test on SN12C and > 43.3 µM (inactive) with TK-10.
`C=C(C)[C@@H]1CC[C@]2(C)CC[C@]3(C)[C@H](CC[C@@H]4[C@@]5(C)CC[C@H](O)C(C)(C)[C@@H]5CC[C@]43C)[C@@H]12` [LUPEOL]: the GI50 is 13.4 µM (inactive) with A498; 15.6 µM (inactive) in the test with BT-549; > 81.1 µM (inactive) with CAKI-1; 72.9 µM (inactive) in the test on EKVX; 47.4 µM (inactive) in the test on HL-60; > 58.3 µM (inactive) with HOP-62. In addition, the GI50 with HT-29 was > 78.2 µM (inactive); with IGROV-1, > 54.7 µM (inactive); with MCF7, 21.7 µM (inactive); in the test with MDA-MB-231, 58.6 µM (inactive); with MDA-MB-435, 19.4 µM (inactive); in the test with NCI-H23, 61.5 µM (inactive). In addition, the GI50 with NCI-H460 is 45.7 µM (inactive); in the test with OVCAR-8, 33.3 µM (inactive); with RPMI-8226, 53.7 µM (inactive); in the test with SF-268 it was > 55.7 µM (inactive); with SK-MEL-28, > 65.2 µM (inactive); in the test on SK-MEL-5 it was > 74 µM (inactive). The GI50 was 36.5 µM (inactive) in the test on SN12C and > 79.6 µM (inactive) in the test with TK-10.
For `COc1ccc2nc3cccc([N+](=O)[O-])c3c(NCCC(=O)O)c2c1`, the GI50 in the test with A498, in the test on BT-549, with CAKI-1, in the test on EKVX, in the test with HL-60 and in the test with HOP-62 was > 10 µM (inactive) each time. The GI50 in the test on HT-29 is > 10 µM (inactive); in the test on IGROV-1, > 10 µM (inactive); in the test on MCF7, 5.78 µM (inactive); in the test with MDA-MB-231 it was > 10 µM (inactive); with MDA-MB-435 it was > 10 µM (inactive); in the test on NCI-H23 it was > 10 µM (inactive). In addition, the GI50 with NCI-H460, with OVCAR-8, in the test with RPMI-8226, in the test on SF-268, in the test on SK-MEL-28 and in the test with SK-MEL-5 was > 10 µM (inactive) in each case. In addition, the GI50 in the test on SN12C and in the test on TK-10 was > 10 µM (inactive) each time.
For the molecule `Cc1c2oc3c(C)ccc(C(=O)NC4C(=O)NC(C(C)C)C(=O)N5CCCC5C(=O)N(C)CC(=O)N(C)C(C(C)C)C(=O)OC4C)c3nc-2c(C(=O)NC2C(=O)NC(C(C)C)C(=O)N3CCCC3C(=O)N(C)CC(=O)N(C)C(C(C)C)C(=O)OC2C)c(N)c1=O` (stereo not given) (I: TVP[Sar][NMeV] / II: TVP[Sar][NMeV]; ester I:1-I:C, II:1-II:C; linker I:N-II:N via Actinocin(9to1); configuration not given here), the GI50 is 0.00169 µM (active) with A498; 0.0025 µM (active) in the test on BT-549; 0.00224 µM (active) with CAKI-1; 0.00416 µM (active) with EKVX; 0.00017 µM (active) in the test on HL-60; 0.000486 µM (active) in the test on HOP-62. Besides, the GI50 in the test on HT-29 is < 0.0001 µM (active); with IGROV-1, 0.00011 µM (active); in the test on MCF7, < 0.0001 µM (active); in the test with MDA-MB-231, 0.00494 µM (active); in the test on MDA-MB-435, 0.000461 µM (active); in the test on NCI-H23, 0.000556 µM (active). Also, the GI50 in the test with NCI-H460 was < 0.0001 µM (active); with OVCAR-8 it was 0.000212 µM (active); with RPMI-8226 it was 0.00104 µM (active); in the test on SF-268, < 0.0001 µM (active); with SK-MEL-28, 0.000764 µM (active); in the test with SK-MEL-5, 0.000351 µM (active). In addition, the GI50 in the test on SN12C was 0.00011 µM (active); with TK-10, 0.0101 µM (active).
In the case of `CCCCCCCCCCCCCCCC(=O)Nc1ccn(C2OC(CO)C(O)C2O)c(=O)n1` (stereo not given), the GI50 in the test with A498 was 22.1 µM (inactive); in the test with BT-549, 33.7 µM (inactive); with CAKI-1 it was 28.7 µM (inactive); in the test with EKVX it was > 100 µM (inactive); with HL-60, 2.77 µM (inactive); in the test on HOP-62, 0.887 µM (active). The GI50 is 25.7 µM (inactive) in the test on HT-29; 35.6 µM (inactive) with IGROV-1; 0.94 µM (active) with MCF7; > 62.8 µM (inactive) in the test with MDA-MB-231; 27.6 µM (inactive) in the test with MDA-MB-435; 2.05 µM (inactive) in the test with NCI-H23. The GI50 in the test on NCI-H460 is 0.78 µM (active); in the test with OVCAR-8, 6.55 µM (inactive); with RPMI-8226, 42.2 µM (inactive); in the test with SF-268, 15.2 µM (inactive); in the test with SK-MEL-28, 41.9 µM (inactive); in the test on SK-MEL-5, 29.9 µM (inactive). The results for the GI50 in the test with SN12C and in the test on TK-10 were 31 µM (inactive) and > 100 µM (inactive), respectively.
In the case of `COc1cc(CNCc2cc(OC)c(OC)c(OC)c2)cc(OC)c1OC`, the GI50 in the test with A498 is > 10 µM (inactive); with BT-549, > 10 µM (inactive); in the test with CAKI-1, > 10 µM (inactive); with EKVX, > 10 µM (inactive); in the test with HL-60, > 4.62 µM (inactive); with HOP-62, > 10 µM (inactive). Also, the GI50 in the test on HT-29, in the test with IGROV-1, in the test on MCF7, in the test with MDA-MB-231, in the test on MDA-MB-435 and in the test on NCI-H23 was > 10 µM (inactive) each time. The GI50 with NCI-H460 was > 10 µM (inactive); with OVCAR-8 it was > 10 µM (inactive); in the test with RPMI-8226, 9.73 µM (inactive); in the test on SF-268, > 10 µM (inactive); with SK-MEL-28, > 10 µM (inactive); with SK-MEL-5, > 10 µM (inactive). The GI50 in the test on SN12C and in the test on TK-10 was > 10 µM (inactive) in each case.
